Patent US4968706A, “Ethers and thioethers having therapeutical activity, their preparation and pharmaceutical compositions containing them” (priority 1987, dated 1990)

Legend:
[1] = test system: tracheo-bronchial mucus secretion; assay: Red phenol secretion in BAL (mucus secretion); assay type: in vivo, Albino Swiss male mice
Description: (§1) The ability of a drug to modify the tracheo-bronchial mucus secretion is evaluated measuring the excretion of a dyestuff in the respiratory tree.
(§2) Albino Swiss male mice are used in this test and the animals are killed 30 minutes after dye treatment. The dye content in BAL's is evaluated spectrometrically at 546 nm.
An increased red phenol secretion in BAL's after drug treatment means stimulation of mucus production.

[2] = test system: tracheo-bronchial mucus secretion; assay: Uranine secretion in BAL (mucus secretion); assay type: in vivo, Albino Swiss female mice
Description: as §1
The animals are sacrified 30 minutes after; the respiratory tree is excised and accurately washed. The washing fluids (BAL) are collected and evaluated for the uranine content using a spectrofluorimetric technique.
as §2

[3] = test system: tracheo-bronchial mucus secretion; assay: Time-course of red phenol excretion (long-lasting action); assay type: in vivo, Albino Swiss male mice
Description: as §2
Infact, a substance can be administered 2, 1 and 1/2 hours before the intraperitoneal administration of the red phenol marker. If the animals are killed, as usual, half an hour after the dyestuff treatment, the overall time of drug action increases from 1 hr to 11/2 and 21/2 hrs respectively.

[4] = test system: tracheo-bronchial mucus secretion; conditions: known effect of therapeutically active drugs; cited from earlier work
[5] = test system: hyperreactive spasmus induced by acetylcholine challenge; assay: Hyperreactive spasmus induced by acetylcholine challenge in anaesthetized guinea-pigs submitted to forced tobacco-smoking respiration; assay type: in vivo; conditions: for activity as reference substance in the acetylcholine challenge procedure: i.m. administration
[6] = 100 mg/kg os, overall experiment 1 1/2 hours
[7] = 100 mg/kg os, overall experiment 2 1/2 hours
[8] = 100 mg/kg os, overall experiment 1 hour

Row | Structure (SMILES) | % increase of dyestuff secretion in BAL (vs. untreated animals), red phenol ([1]; 25 mg/kg os) [%] | % increase of dyestuff secretion in BAL (vs. untreated animals), red phenol ([1]; 50 mg/kg os) [%] | % increase of dyestuff secretion in BAL (vs. untreated animals), red phenol ([1]; 100 mg/kg os) [%] | % increase of dyestuff secretion in BAL (vs. untreated animals), uranine ([2]; 25 mg/kg os) [%] | % increase of dyestuff secretion in BAL (vs. untreated animals), uranine ([2]; 50 mg/kg os) [%] | % increase of dyestuff secretion in BAL (vs. untreated animals), uranine ([2]; 100 mg/kg os) [%] | Time-course of % increase of red phenol excretion (vs. untreated animals) [3, 6] [%] | Time-course of % increase of red phenol excretion (vs. untreated animals) [3, 7] [%] | Time-course of % increase of red phenol excretion (vs. untreated animals) [3, 8] [%] | % increase of dyestuff secretion in BAL (vs. untreated animals), red phenol ([1]; 200 mg/kg os) [%] | % increase of dyestuff secretion in BAL (vs. untreated animals), uranine ([2]; 200 mg/kg os) [%] | Time-course of % increase of red phenol excretion (vs. untreated animals) ([3]; 200 mg/kg os, overall experiment 1 1/2 hours) [%] | Time-course of % increase of red phenol excretion (vs. untreated animals) ([3]; 200 mg/kg os, overall experiment 2 1/2 hours) [%] | Time-course of % increase of red phenol excretion (vs. untreated animals) ([3]; 200 mg/kg os, overall experiment 1 hour) [%] | uranine content in the BAL's in respect to control values (in words) [4] | activity as reference substance in the acetylcholine challenge procedure [5] | reduction of hyperreactive spasmus induced by acetylcholine challenge ([5]; e.v. treatment, 5 to 30 mg/kg, forced tobacco-smoking respiration)
1 | COc1ccccc1OCC1COC(CSCC(=O)NCc2cccnc2)O1 (centres unmarked) [Substance D, N-(3-pyridyl)methyl-3-thia-4-[4-(2-methoxy-phenoxy)-methyl-(Z,E)-(1,3)-dioxolan-2-yl]-butanoic acid amide] | 49 | 120 | 179 | 66 | 132 | 284 | 111 | 58 | 179 | – | – | – | – | – | – | – | –
2 | CC1=CCC(C(C)(C)O)CC1O (centres unmarked) [Substance F, sobrerol, reference compound] | – | 48 | 69 | – | 54 | 104 | – | – | – | 111 | 144 | 73 | 30 | 108 | increase the uranine content in the BAL's in a dose dependent way | – | –
3 | COc1ccccc1OCC1COC(CSCC(=O)O)O1 (centres unmarked) [Substance C, 3-thia-4-[4-(2-methoxy-phenoxy)methyl-(Z,E)-dioxolan-2-yl]-butanoic acid] | 47 | 83 | 143 | 25 | 52 | 101 | 72 | 42 | 143 | – | – | – | – | – | – | – | –
4 | CN(Cc1cc(Br)cc(Br)c1N)C1CCCCC1 [Substance E, bromexine, reference compound] | 28 | 69 | 83 | 0 | 50 | 63 | 61 | 21 | 98 | – | – | – | – | – | increase the uranine content in the BAL's in a dose dependent way | – | –
5 | C[C@H]1C[C@@H]2[C@H]([C@@H](O)C[C@@]3(C)[C@H]2CC[C@]3(O)C(=O)CO)[C@@]2(C)C=CC(=O)C=C12 [6-α-methylprednisolone] | – | – | – | – | – | – | – | – | – | – | – | – | – | – | – | Positive | –
6 | COc1ccccc1OCCSCC(=O)NCc1cccnc1 [Substance B, N-(3-pyridyl)methy 1-3-thia-5 (2-methoxy-phenoxy)pentanoic acid amide] | 12 | 73 | 126 | 70 | 140 | 190 | 119 | 62 | 126 | – | – | – | – | – | – | – | able to reduce the hyperreactive spasmus induced by acetylcholine challenge in dose dependent way
7 | O=C(O)c1cc(=O)c2c(OCC(O)COc3cccc4oc(C(=O)O)cc(=O)c34)cccc2o1 [sodium dichromoglicate] | – | – | – | – | – | – | – | – | – | – | – | – | – | – | – | Positive | –
8 | COc1ccccc1OCCSCC(=O)O [Substance A, 3-thia-5-(2-methoxy-phenoxy)-pentanoic acid] | 25 | 50 | 104 | 45 | 98 | 138 | 98 | 62 | 104 | – | – | – | – | – | – | – | –
